In patent US6906170B1 (Yeda Research and Development Co. Ltd., priority 1998, dated 2005):
No end group written: not given here.

What was measured:
[1] = tested on: HT-29 cells; experiment: Spontaneous IL-8 secretion from intestinal epithelial cells (ELISA); format: cell-based, human; design: IL-8 secretion Average O.D.: scale not given here; conditions: peptide 1 nM, 24 h at 37° C.; for IL-8 secretion Average O.D.: ELISA O.D. at 405 nm, medium alone 488 ± 8.5, background 71 ± 1.4; for IL-8 secretion % inhibition: spontaneous secretion
Experimental: Human colonic epithelial cell lines HT-29 (ATCC HTB38) and Caco-2 (ATCC […]) were obtained from the American Type Culture Collection (ATTC, Rockville, Md.). Cells were maintained in culture medium (DMEM supplemented with 10% cosmic calf serum (CSS), 2 mM glutamine, 100 U/ml penicillin, and 0.1 mg/ml streptomycin), at 37° C. and atmosphere of 5%, CO2. Cell viability was assessed using the standard MTT method.
Spontaneous or cytokine-induced secretion of IL-8 or IL-1β from intestinal epithelial cell. Test cells (HT-29 or Caco-2) were grown as confluent monolayers in 24-well tissue culture plates. […] When TNF-α was used, the peptides were added to the cells 1 hour prior to the addition of TNF-α. Following culture, the supernatants were harvested and analyzed for IL-8 or IL-1β secretion by ELISA using commercially available kits for IL-8 (Pharmingen) and IL-1β (Genzyme), according to the manufacturers' protocols.
The results in Table 1 show the O.D. readings of the ELISA assay (at 405 nm) as well as the percentage of inhibition of IL-8 secretion.

[2] = tested on: human T cells; experiment: IL-2-induced T cell adhesion to fibronectin (FN); format: cell-based; conditions: for inhibition of adhesion of IL-2-activated T cells to FN: 30 min at 37° C., dose range
Experimental: (§1) T cell adhesion assays. Human T cells were purified from the peripheral blood of healthy donors, and T cell adhesion to immobilized protein substrates was examined as follows: Human leukocytes were isolated on a Ficoll gradient, washed, and incubated (2 h, 37° C., 7.5% CO2, humidified atmosphere) on petri dishes. The non-adherent cells were then collected and incubated (1 h, 37° C., 7.5% CO2, humidified atmosphere) on nylon wool columns (Novamed Ltd., Jerusalem, Israel). Unbound cells were eluted from the columns by extensive washings. The resulting cell population was always >92% T cells. […] After 4-6 h at 37° C., the wells were washed and ^51[Cr]-labeled T cells were added to the wells, 10^5 cells/100 μl of adhesion medium (RPMI-1640 supplemented with 0.1% BSA, 1% sodium pyruvate, 1% HEPES buffer). The microtiter plates containing the cells were incubated (30 min, 37° C.) in a humidified, 7.5% CO2 atmosphere, and then washed. The adherent cells were lysed, and the resulting supernatants were removed and analyzed in a γ-counter. For each experimental group, the results were expressed as the mean percentage ±SD of bound T cells from quadruplicate wells.
The effect of synthetic peptides, with putative amino acid compositions corresponding to fractions 2 and 8, on IL-2-induced T cell adhesion to FN. […] These three peptides were synthesized, and their effects on IL-2-induced T cell adhesion to FN were studied. […] The inhibitory dose-response curves of Ile-Val-Leu and […](SEQ ID NO:1) are similar to those of the HPLC fractions 2 and 8, respectively, from which they were derived. […]

[3] = tested on: human T cells; experiment: IL-2-induced T cell adhesion to LN, CO-IV and FN after peptide pre-treatment; format: cell-based; conditions: pre-exposed to peptide 10 pg/ml, then IL-2 10 U/ml
Experimental: The T cells were then seeded onto microtiter wells that were pre-coated (1 μg/well) with the various ECM glycoproteins. T cell adhesion was measured 30 min later.
as §1
Ile-Val-Leu, Arg-Met-Leu-Thr (SEQ ID NO:2) and […](SEQ ID NO:1) inhibit T cell adhesion to LN, CO-IV and FN. The next experiment was designed and performed to verify that the three IL-2-derived peptides indeed affect T cell interactions with ECM glycoproteins other than FN. […] The treated cells were then added to microtiter wells coated with CO-IV, LN, and FN.

[4] = tested on: human T cells; experiment: T cell chemotaxis through FN-coated polycarbonate membranes; format: cell-based; conditions: peptide 1 pg/ml, FN-coated membrane
Experimental: T cell migration towards the chemotactic sources was assessed after 2 hr. One experiment representative of four.
Chemotaxis assays. T cell chemotaxis was performed and analyzed as previously described (Ben-Baruch et al., 1997). Briefly, the migration of human T cells (0.5×10^6 cells in adhesion medium/well) was examined in a 48-well chemotaxis micro-chamber (Neuro-Probe Inc., Cabin John, M D). The two compartments of the micro-chambers were separated by a FN-coated polycarbonate filter (5 μm pore size; Osmonics Protein Products, Livemore, Calif.). […] After incubation (120 min, 37° C., in a humidified, 7.5% CO2 atmosphere); the filters were removed, fixed, and stained with a Diff-Quik staining kit Dade, Düdingen, Switzerland). The number of migrating T cells in five high-power fields (under 500× magnification; WILD Microscope, Heerbrugg, Switzerland) was evaluated. For each group, the results are expressed as the mean number of cells in one high-power field.
Immune cell migration is the outcome of a subtle biological equilibrium existing between adhesion and detachment events. Lymphocyte adhesion to the subendothelial ECM and subsequent migration are two active processes that can overlap, but are not mutually dependent events. Adhesion and migration may depend on the ability of the T cells to continuously integrate different pro- and anti-adhesive signals via their versatile receptors for ECM, chemokines, cytokines, and possibly, also antigenic moieties.

[5] = tested on: human T cells; experiment: PHA- or IL-2-mediated T cell proliferation; format: cell-based; conditions: peptide 1 to 100 pg/ml
Experimental: The in vitro bioassays (a) to (e) are well-known in the art. Thus, for example, assays (a), (b) and (e) may be carried out as described in the section Materials and Methods hereinafter. […] The IL-2-derived peptides or their derivatives are added to the culture wells (different amounts, 10 microliters) for the entire period of the assay. [^3H]-Thymidine is added to the microtiter 96 U-form well plates 18 h before harvesting the cultures on day 3 onto glass fiber filters and counted by liquid scintillation counter. Mean CPM and SD from quadriplicate culture are then presented.

[6] = tested on: human T cells; experiment: Secretion of TNF-α and IFN-γ from proliferating T cells; format: cell-based; conditions: peptide 1 to 100 pg/ml; not shown
[7] = tested on: human T cells; experiment: Induction of T cell adhesion to ECM, FN, LN and CO-IV; format: cell-based; conditions: T cells activated only with PMA; not shown

Molecule	IL-8 secretion Average O.D. [1]	IL-8 secretion % inhibition [1] [%]	also measured
Arg-Met-Leu-Thr (RMLT; not fully specified (C-terminus); printed as Arg-Met-Leu-Thr) [pep3]	44 ± 0.7	107	concentration giving maximum inhibition of IL-2-induced T cell adhesion to FN ([2]; IL-2 10 U/ml): about 0.1 pg/ml; concentration giving maximum inhibition of IL-2-induced T cell adhesion to FN (molar) ([2]; IL-2 10 U/ml): ~0.2 pM; inhibition of adhesion of IL-2-activated T cells to FN ([2]; IL-2 10 U/ml): inhibited, in a dose-dependent manner; anti-adhesive effect after removal of peptide prior to IL-2 activation ([2]; T cells pre-treated 1 pg/ml, washed, then IL-2 and FN-coated wells): most of the anti-adhesive effects of the three peptides persevered; relative potency as inhibitor of IL-2-induced T cell adhesion to FN ([2]; among the three IL-2 peptides): most potent inhibitor; inhibition of T cell adhesion to CO-IV, LN and FN [3]: inhibit T cell adhesion to the three major cell-adhesive glycoproteins of the ECM; inhibition of T cell migration toward IL-2 ([4]; IL-2 10 U/ml in lower compartment, p<0.01): ~90%; inhibition of T cell chemotaxis toward MIP-1β ([4]; MIP-1β in lower compartment): 60%; interference with PHA- or IL-2-mediated proliferative responses [5]: none of them, at 1 to 100 pg/ml, interfered with either PHA- or IL-2-mediated proliferative responses; inhibition of secretion of TNF-α and IFN-γ from proliferating T cells [6]: nor did these peptides inhibit the secretion of TNF-α and IFN-γ
EFLARWIT [pep27]	309 ± 18.4	43	–
Glu-Val-Leu [pep10]	125 ± 19.1	87	–
AFLNRWIT [pep22]	158 ± 4.2	79	–
Ile-Val-Ala [pep9]	100 ± 9.9	93	–
EFANRWIT [pep26]	156 ± 27.6	80	–
EFLNRWITFC [pep16]	126 ± 7.1	87	–
LNRWIT [pep19]	152 ± 30.4	81	–
Arg-Met-Leu-Ala (RMLA) [pep39]	160 ± 21.9	79	–
Arg-Trp-Ile-Thr [pep20]	191 ± 4.9	71	–
Ala-Val-Leu [pep7]	170 ± 8.5	76	–
EALNRWIT [pep24]	187 ± 16.3	72	–
TIWRNLFE [reference compound]	–	–	inhibition of adhesion of IL-2-activated T cells to FN ([2]; IL-2 10 U/ml): none of these peptides, tested in a broad range of dosages, interfere with T cell adhesion
IVLELKG [pep5]	35 ± 0.7	109	–
EFLNRWITFCQS [pep18]	162 ± 12.0	78	–
ATIVEFLNRWIT [pep17]	150 ± 6.4	81	–
NINVIVL [pep4]	34 ± 3.5	109	–
PKLTRMLT [pep43]	57 ± 12.7	103	–
Ala-Met-Leu-Thr (AMLT) [pep36]	201 ± 17.7	69	–
Lys-Met-Leu-Thr (KMLT) [pep40]	179 ± 17.7	74	–

Molecule	IL-8 secretion Average O.D. [1]	IL-8 secretion % inhibition [1] [%]	also measured
EFLNAWIT [pep28]	120 ± 8.5	88	–
IVEFLNRWIT [pep15]	33 ± 0.7	109	–
Arg-Val-Leu-Thr (RVLT) [pep41]	132 ± 17.0	85	–
EFLNRWAT [pep31]	112 ± 18.4	90	–
Leu-Val-Ile [reference compound]	–	–	inhibition of adhesion of IL-2-activated T cells to FN ([2]; IL-2 10 U/ml): none of these peptides, tested in a broad range of dosages, interfere with T cell adhesion
EFLNRWIA [pep32]	80 ± 24.0	98	–
EFLNRAIT [pep30]	123 ± 9.2	88	–
CCCCCCCCCCCCCC(=O)O[C@@H]1[C@@H](C)[C@@]2(O)[C@@H](C=C(CO)C[C@]3(O)C(=O)C(C)=C[C@@H]23)[C@@H]2C(C)(C)[C@]12OC(C)=O [PMA]	–	–	T cells adhered to immobilized ECM and ECM glycoproteins [7]: 45±4.4%
Glu-Phe-Leu-Asn [pep21]	195 ± 14.1	70	–
Arg-Ala-Leu-Thr (RALT) [pep37]	222 ± 24.0	64	–
Arg-Met-Ala-Thr (RMAT) [pep38]	157 ± 1.4	79	–
Thr-Leu-Met-Arg (TLMR) [reference compound]	–	–	inhibition of adhesion of IL-2-activated T cells to FN ([2]; IL-2 10 U/ml): none of these peptides, tested in a broad range of dosages, interfere with T cell adhesion
Glu-Phe-Leu-Asn-Arg-Trp-Ile-Thr-NH2 (EFLNRWIT-NH2) [pep33]	73 ± 5.7	100	–
EFLNEWIT [pep29]	139 ± 19.8	84	–
Ile-Ala-Leu [pep8]	35 ± 4.9	109	–
Asn-Val-Ile-Val-Leu (NVIVL) [pep6]	100 ± 14.8	93	–
KFLNRWIT [pep23]	36 ± 14.1	108	–
EVLNRWIT [pep25]	172 ± 2.8	76	–
RMLTFKFY [pep44]	307 ± 29.7	43	–
Arg-Met-Leu-Thr-NH2 (RMLT-NH2) [pep42]	226 ± 28.3	63	–
